Assay results: patent US20260020566A1, “FUNGICIDAL COMPOSITIONS” (SYNGENTA CROP PROTECTION AG, priority 2022, published 2026)
Where “and” joins values, the source holds several entries; their conditions need not be identical. Identical values can stand only once.

Assays:
Phakopsora pachyrhizi = Phakopsora pachyrhizi (Soybean rust) soybean leaf disk preventive fungicidal activity; type: in vivo; details: single compound, approx. 12 dpi; for inhibition at 3 g/ha / inhibition at 1 g/ha: Phakopsora pachyrhizi, foliar, read-out: Observed Activity (%)
Procedure: Phakopsora pachyrhizi (Soybean Rust): Soybean leaf disks are placed on agar in multiwell plates (24-well format) and sprayed with test solutions. After drying, the leaf disks are inoculated with a spore suspension of the fungus. After appropriate incubation the activity of a compound is assessed approx. 12 dpi (days after inoculation) as preventive fungicidal activity.

Septoria tritici = Septoria tritici (Leaf blotch) liquid culture growth inhibition, microtiter plate; type: cell-based; details: single compound, 72 hrs, 24 C
Procedure: (§1) Septoria tritici (Leaf Blotch): Conidia of the fungus from cryogenic storage were directly mixed into nutrient broth (PDB potato dextrose broth). A DMSO solution of the test compounds was placed into a microtiter plate (96-well format) and the nutrient broth containing the fungal spores was added to it. The test plates were incubated at 24 C and the inhibition of growth was determined photometrically after 72 hrs.

Botrytis cinerea = Botrytis cinerea (Gray mould) liquid culture growth inhibition, microtiter plate; type: cell-based; details: single compound, 72 hrs, 24 C, read-out: Observed Activity (%)
Procedure: as §1, with “Botrytis cinerea (Gray Mould):” for “Septoria tritici (Leaf Blotch):”

[1] = tested on: Mycosphaerella arachidis syn. Cercospora arachidicola; assay: Mycosphaerella arachidis syn. Cercospora arachidicola (Brown leaf spot of peanut) liquid culture growth inhibition; type: cell-based; details: single compound, approximately 5-6 days, 24 C, read-out: Observed Activity (%)
Procedure: as §1, with “Mycosphaerella arachidis syn. Cercospora arachidicola (Brown Leaf Spot of Peanut):” for “Septoria tritici (Leaf Blotch):”, “approximately 5-6 days at 620nm” for “72 hrs.”

[2] = Zymoseptoria tritici, read-out: Observed Activity (%)

Molecule	Observed Activity (%) (Phakopsora pachyrhizi; 1 g a.i./ha)	Observed Activity (%) (Phakopsora pachyrhizi; 3 g a.i./ha)	inhibition at 10 ppm (Septoria tritici; [2])	inhibition at 20 ppm (Septoria tritici; [2])	inhibition at 20 ppm (Botrytis cinerea)	inhibition at 3 g/ha (Phakopsora pachyrhizi; 3 g a.i./ha)	inhibition at 1 g/ha (Phakopsora pachyrhizi; 1 g a.i./ha)	further results
1-(2,6-difluoro-4-isopropyl-phenyl)pyrazole; methyl N-[(2,5-dimethylphenyl)methyl]carbamate [reference compound]	3%	65%						Observed Activity (%) (Septoria tritici; 0.0008 ppm): 20%; Observed Activity (%) (Septoria tritici; 0.00246 ppm): 70%
Fc1cccc(F)c1C1(Oc2ncc(-c3nnc(C(F)F)o3)cn2)CC1 [Compound A-1.2, 2-(difluoromethyl)-5-[2-[1-(2,6-difluorophenyl)cyclopropoxy]pyrimidin-5-yl]-1,3,4-oxadiazole]	0% and 9%	4% and 0%	0%	0%				Observed Activity (%) (Phakopsora pachyrhizi; 6 g a.i./ha): 5%
Fc1cccc(F)c1C1(Nc2ncc(-c3nnc(C(F)F)o3)cn2)CC1 [Compound A-1.3, 5-[5-(difluoromethyl)-1,3,4-oxadiazol-2-yl]-N-[1-(2,6-difluorophenyl)cyclopropyl]pyrimidin-2-amine]	5% and 1%		20%	20%	20%	47%		inhibition at 10 ppm (Botrytis cinerea): 20%; inhibition at 10 ppm ([1]; 10 ppm): 20%; inhibition at 20 ppm ([1]; 20 ppm): 20%
Fc1ccccc1C1(Nc2ncc(-c3nnc(C(F)F)o3)cn2)CC1 [Compound A-1.4, 5-[5-(difluoromethyl)-1,3,4-oxadiazol-2-yl]-N-[1-(2-fluorophenyl)cyclopropyl]pyrimidin-2-amine]	16%	45%	20%	20%	20%	43%	12%	inhibition at 10 ppm (Botrytis cinerea): 20%
CCOC(=O)c1cnn(Cc2ccc(O/C=C(\OCC)C(F)(F)F)cc2)c1 [ethyl 1-[[4-[(Z)-2-ethoxy-3,3,3-trifluoro-prop-1-enoxy]phenyl]methyl]pyrazole-4-carboxylate, reference compound]				20%	20%	56%	38%	inhibition at 6.66 ppm (Botrytis cinerea): 20%
CCOC(=O)c1cnn(Cc2ccc(OCC3(C(F)(F)F)OCCO3)cc2)c1 [ethyl 1-[[4-[[2-(trifluoromethyl)-1,3-dioxolan-2-yl]methoxy]phenyl]methyl]pyrazole-4-carboxylate]					0%		35%	inhibition at 6.66 ppm (Botrytis cinerea): 0%
COC(=O)NCc1cc(-c2ccn(-c3c(F)cc(C4CC4)cc3F)n2)ccc1C [methyl N-[[5-[1-(4-cyclopropyl-2,6-difluoro-phenyl)pyrazol-3-yl]-2-methyl-phenyl]methyl]carbamate, reference compound]						54%	12%	inhibition at 0.0074 ppm (Botrytis cinerea; 0.0074 ppm): 0%; inhibition at 0.022 ppm (Botrytis cinerea; 0.022 ppm): 50%; inhibition at 0.00246 ppm ([1]; 0.00246 ppm): 20%; inhibition at 0.0008 ppm (Septoria tritici; Zymoseptoria tritici, 0.0008 ppm, read-out: Observed Activity (%)): 20%
